Test results from PMC3532034 (The Journal of neuroscience : the official journal of the …, 2012).

Molecular target: LRRK2 (leucine-rich repeat kinase 2) (Homo sapiens, UniProt Q5S007)
Test: in vitro radiometric kinase assay with recombinant purified LRRK2
Assay type: biochemical

Sequence of LRRK2 (leucine-rich repeat kinase 2) (Q5S007 970-2527 limits assumed): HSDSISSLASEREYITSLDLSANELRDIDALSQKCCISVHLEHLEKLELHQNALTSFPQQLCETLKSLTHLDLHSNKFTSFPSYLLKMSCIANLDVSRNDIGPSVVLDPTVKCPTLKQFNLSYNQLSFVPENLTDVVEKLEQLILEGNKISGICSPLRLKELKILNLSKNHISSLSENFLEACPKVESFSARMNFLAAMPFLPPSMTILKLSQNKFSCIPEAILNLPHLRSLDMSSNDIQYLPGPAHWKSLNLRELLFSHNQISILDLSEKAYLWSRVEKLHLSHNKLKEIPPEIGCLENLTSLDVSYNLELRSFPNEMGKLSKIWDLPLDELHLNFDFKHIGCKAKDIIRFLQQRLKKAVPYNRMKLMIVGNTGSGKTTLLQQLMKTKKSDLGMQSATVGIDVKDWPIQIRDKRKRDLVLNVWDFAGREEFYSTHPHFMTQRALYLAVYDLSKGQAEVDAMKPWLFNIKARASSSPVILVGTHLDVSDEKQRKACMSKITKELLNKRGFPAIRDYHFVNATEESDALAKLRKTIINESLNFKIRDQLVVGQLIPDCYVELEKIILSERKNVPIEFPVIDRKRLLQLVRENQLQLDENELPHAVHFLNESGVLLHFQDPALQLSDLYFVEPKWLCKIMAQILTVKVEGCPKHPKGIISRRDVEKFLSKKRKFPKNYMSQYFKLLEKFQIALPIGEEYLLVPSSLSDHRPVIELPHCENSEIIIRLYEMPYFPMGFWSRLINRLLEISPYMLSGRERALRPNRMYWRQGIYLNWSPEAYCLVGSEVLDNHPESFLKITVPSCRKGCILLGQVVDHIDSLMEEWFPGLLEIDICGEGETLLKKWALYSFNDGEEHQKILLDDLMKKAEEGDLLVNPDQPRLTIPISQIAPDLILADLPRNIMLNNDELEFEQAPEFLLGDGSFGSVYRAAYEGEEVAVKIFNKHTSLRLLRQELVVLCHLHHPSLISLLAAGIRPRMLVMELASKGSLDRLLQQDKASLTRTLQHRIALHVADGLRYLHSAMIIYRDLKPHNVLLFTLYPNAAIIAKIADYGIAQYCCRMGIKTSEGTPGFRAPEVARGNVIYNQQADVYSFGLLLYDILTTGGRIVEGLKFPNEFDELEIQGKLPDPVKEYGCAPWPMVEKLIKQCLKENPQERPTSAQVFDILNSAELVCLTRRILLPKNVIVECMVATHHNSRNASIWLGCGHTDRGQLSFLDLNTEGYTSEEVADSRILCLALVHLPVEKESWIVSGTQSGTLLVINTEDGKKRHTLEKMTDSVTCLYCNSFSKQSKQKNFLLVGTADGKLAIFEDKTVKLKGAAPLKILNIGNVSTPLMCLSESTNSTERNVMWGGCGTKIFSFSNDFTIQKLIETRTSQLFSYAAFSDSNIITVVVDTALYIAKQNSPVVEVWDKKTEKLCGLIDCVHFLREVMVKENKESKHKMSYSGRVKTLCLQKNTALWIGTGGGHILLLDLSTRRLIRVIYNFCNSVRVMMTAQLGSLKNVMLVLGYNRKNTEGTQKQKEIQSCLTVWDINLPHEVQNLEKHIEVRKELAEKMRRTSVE

- IC50: 40.3 nM
SMILES: COc1cc(C(=O)N2CCC(N3CCN(C)CC3)CC2)ccc1Nc1ncc2c(n1)N(C)c1ccccc1C(=O)N2C [L2in1]
